Assay results published in PMC8840040, “Pharmacokinetic Characterization of the DDAH1 Inhibitors ZST316 and ZST152 in Mice Using a HPLC-MS/MS Method” (Molecules, 2022).
“And” between values parts separate entries of the source, which are not always exact repeats. Identical values can stand only once. Like-named read-outs stand apart in the source and are kept apart here.

Columns and labels:
[1] = Stability in mouse plasma and urine; format: in vitro ADME; conditions: for stability in urine stored frozen: mice urine, −20 °C
Method: The extraction recovery, established on QCs at the concentrations of LLOQ (i.e., 5 ng/mL), at 15 and 250 ng/mL, fell in the range 88.9%–94.6% and 87.9%–117.5% for ZST316 and ZST152, respectively. The LLOQ in plasma was 5.0 ng/mL for both compounds, with precision of 7.1% and 4.1% and accuracy of 95.8% and 106.1% (n = 6) for ZST316 and ZST152, respectively (Table 1). We decided to validate this value as LLOQ even though the limit of detection (LOD) reached in the initial set up phase of the methods was established for both compounds at 1 ng/mL (S/N > 4.0). However, such sensitivity was not required as the expected range of activity (IC50) was markedly higher than the LLOQ value for both compounds. The linearity of the method, evaluated over three different analytical runs in the concentration range 5.0–500.0 ng/mL, was acceptable for both analytes, with an average coefficient of determination (R^2) of 0.990 and 0.992 for ZST316 and ZST152, respectively. […] Both ZST316 and ZST152 were stable in frozen plasma for at least one month at −20 °C. No chromatographic carry-over effect was observed injecting a blank sample after the highest standard calibration point. The method was considered suitable for preclinical pharmacokinetic investigations.
Both ZST316 and ZST152 were stable at 37 °C in mice urine for at least 24 h and stored frozen at −20°C for one month. No chromatographic carry-over effect was observed injecting a blank sample after the highest standard calibration point.

[2] = Plasma pharmacokinetics and urinary elimination after single oral and intravenous administration; format: in vivo, FVB mice; conditions: for urinary excretion, range over oral and intravenous route: 24 h urine, p.o. 60 mg/Kg to i.v. 30 mg/Kg; for clearance: read-out: Clp (plasma clearance) (converted); for Vd: read-out: Vd (volume of distribution); for bioavailability: oral, 60 mg/Kg, read-out: F % (bioavailability); for time up to which detectable in plasma: concentration close to the LLOQ (5 ng/mL)
Method: Mice were treated with ZST316 and ZST152 using a dose of 60 mg/Kg (oral gavage) and 30 mg/Kg (intravenous bolus). For pharmacokinetic sampling, blood was collected at 15 and 30 min, and 1, 3, 8, and 24 h post dose. Three mice were analyzed per each time point. After the animals were anesthetized with isoflurane, the blood was drained from the retro-orbital plexus into heparinized tubes, and then centrifuged for 10 min at 4000× g at 4 °C to separate plasma. A 24-h urine fraction was collected in three mice for each drug and route of administration. Plasma and urine samples were stored at −20 °C until analysis by HPLC-MS/MS.
In the preliminary phase of the method set up, we tried different solvents, 2-propanol, methanol (CH3OH), and acetonitrile (CH3CN) at different pH conditions, quickly obtaining a satisfactory recovery with CH3OH: 0.1% formic acid (HCOOH). Briefly, to assay ZST316, 10 µL of IS (ZST152 WS: 500 ng/mL) were added to 100 µL of plasma study samples, standards, or QCs in a polypropylene tube. The sample was then added with 10 µL of ammonium formate (NH4HCO2) 50 mM, mixed by vortex and added with 400 µL CH3OH: 0.1% HCOOH, vortex mixed again for 30 s and centrifuged at 13,200 rpm for 10 min at 4 °C. A volume of 450 µL of the supernatant was transferred to a new polypropylene tube, dried under nitrogen flow, and reconstituted with 100 µL of MP A:B (1:1, v/v). Finally, the mixed samples were centrifuged at 13,200 rpm for 10 min at 4 °C and the supernatant was transferred into glass vials for HPLC-MS/ MS analysis. Plasma samples containing drug concentrations above the highest standard point of the calibration curve were reanalyzed following dilution with the control matrix.
To assay ZST316, 5 µL of IS (ZST152 WS: 100 µg/mL) were added to 50 µL of urine samples, standards, or QCs in a polypropylene tube. After vortex mixing, 490 µL of MP A:B (1:1; v/v) were added to 10 µL of each sample to obtain a final dilution of 1:50. Samples were vortex mixed again for 30 s, centrifuged at 13,200 rpm for 10 min at 4 °C, and, finally, the supernatant was transferred into glass vials for HPLC-MS/ MS analysis. The urine samples with drug concentrations above the highest standard point of the calibration curve were reanalyzed following dilution with control matrix.
[…] chromatography was performed using a series 200 HPLC system (Perkin Elmer, Waltham, MA, USA) under gradient conditions with separation on a HILIC column, 3 µm, 100 A, 2.1 × 150 mm (Waters, Milford, MA, USA), coupled with a 3 µm, 3.9 × 5.0 mm guard column of the same material at the flow rate of 0.2 mL/min. Gradient features: 10% mobile phase (MP) A (NH4HCO2 10 mM, 10% CH3CN, 0.1% HCOOH) and 90% MP B (CH3CN, 0.1% HCOOH) as the initial constant condition; then to 90% MP A in 6 min and the constant condition for 1.5 min. Return to the start condition in 0.5 min and conditioning for 5.5 min. Total run time: 13.5 min. Mass spectrometric detection was performed using an API 4000 triple quadrupole mass spectrometer (SCIEX, Framingham, MA, USA) supplied with a Turbo Ion Spray source set at 350 °C and −4200 V, analyzing biological samples with electrospray ionization (ESI) operating in negative ion mode. Purified air was used as nebulizer gas (Gas 1) and heater gas (Gas 2) and N2 was used as curtain gas and collision activated dissociation gas. They were set to 40, 50, 20, and 4 instrument units (psi), respectively. The declustering potential (DP) was set at −119 V and the collision exit potential (CXP) at –10 V. All parameters of the source were defined by direct infusion of ZST316 and ZST152 1 µg/mL in mobile phase B. The final quantification was carried out in Selected Reaction Monitoring (SRM) with the following transitions: m/z 307.9 → 208.0 (collision energy of −29.5 eV) for ZST316 and m/z 271.9 → 170.9 (collision energy −24.7 eV) for ZST152 (Figure 2 and Figure 3). Data were processed with the software package Analyst 1.6.2 (AB SCIEX). […]

[3] = test system: human recombinant DDAH1; set-up: method as in PMID 26420019; conditions: cited from earlier work; for IC50 / Ki: human recombinant DDAH1 expressed in HEK293T cells; for IC50: read-out: IC50 towards DDAH1; for Ki: read-out: Ki towards DDAH1
[4] = FVB, mouse, plasma, iv, 30 mg/kg, i.v. 30 mg/Kg, single bolus
[5] = FVB, mouse, plasma, iv, 30 mg/kg, i.v. 30 mg/Kg, read-out: AUC 0-8h
[6] = FVB, mouse, plasma, iv, 30 mg/kg, i.v. 30 mg/Kg, read-out: AUC 0-last
[7] = FVB, mouse, plasma, iv, 30 mg/kg, i.v. 30 mg/Kg, read-out: Half-life (converted)
[8] = FVB, mouse, plasma, iv, i.v. 30 mg/Kg
[9] = FVB, mouse, plasma, p.o. 60 mg/Kg vs i.v. 30 mg/Kg, dose normalized
[10] = FVB, mouse, plasma, po, 60 mg/kg, p.o. 60 mg/Kg, read-out: AUC 0-8h
[11] = FVB, mouse, plasma, po, 60 mg/kg, p.o. 60 mg/Kg, read-out: AUC 0-last
[12] = FVB, mouse, plasma, po, 60 mg/kg, p.o. 60 mg/Kg, read-out: Half-life (converted)
[13] = FVB, mouse, plasma, po, p.o. 60 mg/Kg

SMILES | stability in mice urine at 37 °C [1] | stability in urine stored frozen [1] | urinary excretion, range over oral and intravenous route [2] | Cmax [2, 4] [ng/mL] | AUC(0-t) [2, 5] [ng·h/mL] | AUC(0-t) [2, 6] [ng·h/mL] | half-life [2, 7] [min] | AUC(0-inf) [2, 8] [ng·h/mL] | Tmax [2, 8] [min] | clearance [2, 8] [mL/min/kg] | Vd [2, 8] [L/kg] | bioavailability [2, 9] [%] | AUC(0-t) [2, 10] [ng·h/mL] | AUC(0-t) [2, 11] [ng·h/mL] | half-life [2, 12] [min] | AUC(0-inf) [2, 13] [ng·h/mL] | Tmax [2, 13] [min] | 24 h urinary excretion (% of dose) ([2]; i.v. 30 mg/Kg) | time up to which detectable in plasma ([2]; i.v. 30 mg/Kg) [h] | 24 h urinary excretion (% of dose) ([2]; p.o. 60 mg/Kg) | also measured
COCCNC(=N)NCCC[C@H](N)c1noc(=O)[nH]1 [ZST152] | at least 24 h | one | 12.5%–22.2% and 12.5–22.2% | 24900 | 9250 | 9250 | 72 | 9260 | 5 | 54 | 5.49 | 33 | 6170 | 6170 | 51.6 | 6180 | 15 | 22.2 % of dose | 8 | 12.5 % of dose | half-life ([2]; i.v. 30 mg/Kg, 30 mg/kg): 70.2 min; time up to which measurable in plasma ([2]; p.o. 60 mg/Kg): 8 h; F % (bioavailability) ([2]; p.o. 60 mg/Kg vs i.v. 30 mg/Kg, dose normalized): 33.3%; urinary excretion relative to that of ZST316 ([2]; regardless of the route of administration): four- to fivefold; IC50 [3]: 18 µM; Ki [3]: 7 µM
COCCNC(=N)NCCC[C@H](N)C(=O)NS(C)(=O)=O [ZST316] | at least 24 h | one | 2.3%–7.5% and 2.3–7.5% | 67400 | 21400 | 21500 | 360 | 21600 | 5 | 23.2 | 12.2 | < 5 | 1940 | 1940 | 97.8 | 2010 | 30 | 7.5 % of dose | 24 | 2.3 % of dose | Cmax ([2]; FVB, mouse, plasma, po, 60 mg/kg, p.o. 60 mg/Kg, single dose): 1020 ng/mL; concentration at 8 h ([2]; FVB, mouse, plasma, po, p.o. 60 mg/Kg, 8 h post dose): 29 ng/mL; AUC after intravenous administration relative to that of ZST152 ([2]; i.v. 30 mg/Kg): approximately twice; time up to which measurable in plasma ([2]; p.o. 60 mg/Kg): 8 h; IC50 [3]: 3 µM; Ki [3]: 1 µM; greater inhibitory activity towards DDAH1 compared to reference inhibitor L-257 ([3]; vs L-257): 13 fold
